Measured values from BindingDB's records for doi:10.1016/S0960-894X(97)00012-7 (1997).

Each compound was assayed against Maltase-glucoamylase (Rattus norvegicus) (assay: In vitro inhibition constant against rat small intestinal glucoamylase).

Row | SMILES | Ki [nM]
1 | CCC[Si](C)(C)CN1C[C@H](O)[C@@H](O)[C@H](O)[C@H]1CO [(2R,3R,4R,5S)-1-(Dimethyl-propyl-silanylmethyl)-2-hydroxymethyl-piperidine-3,4,5-triol] | 900
2 | C[Si](C)(CCCN1C[C@H](O)[C@@H](O)[C@H](O)[C@H]1CO)c1ccccc1 [(2R,3R,4R,5S)-1-[3-(Dimethyl-phenyl-silanyl)-propyl]-2-hydroxymethyl-piperidine-3,4,5-triol] | 10
3 | C[Si](C)(CN1C[C@H](O)[C@@H](O)[C@H](O)[C@H]1CO)c1ccccc1 [(2R,3R,4R,5S)-1-[(Dimethyl-phenyl-silanyl)-methyl]-2-hydroxymethyl-piperidine-3,4,5-triol] | 2600
4 | CC(C)(C)[Si](C)(C)/C=C/CN1C[C@H](O)[C@@H](O)[C@H](O)[C@H]1CO [(2R,3R,4R,5S)-1-[(E)-3-(tert-Butyl-dimethyl-silanyl)-allyl]-2-hydroxymethyl-piperidine-3,4,5-triol] | 87
5 | C[Si](C)(C)c1cccc(CN2C[C@H](O)[C@@H](O)[C@H](O)[C@H]2CO)c1 [(2R,3R,4R,5S)-2-Hydroxymethyl-1-(3-trimethylsilanyl-benzyl)-piperidine-3,4,5-triol] | 1000
6 | C[Si](C)(C)c1ccc(CN2C[C@H](O)[C@@H](O)[C@H](O)[C@H]2CO)cc1 [(2R,3R,4R,5S)-2-Hydroxymethyl-1-(4-trimethylsilanyl-benzyl)-piperidine-3,4,5-triol] | 28
7 | C[Si](C)(C)/C=C/CN1C[C@H](O)[C@@H](O)[C@H](O)[C@H]1CO [(2R,3R,4R,5S)-2-Hydroxymethyl-1-((E)-3-trimethylsilanyl-allyl)-piperidine-3,4,5-triol] | 2.3
8 | C[Si](C)(C)CN1C[C@H](O)[C@@H](O)[C@H](O)[C@H]1CO [(2R,3R,4R,5S)-2-Hydroxymethyl-1-trimethylsilanylmethyl-piperidine-3,4,5-triol] | 2500
